Measurements published in patent US6730780B2, “Water-based ink” (Kao Corporation, priority 2000, dated 2004).

Key:
Format in all cases: physicochemical
[1] = Storage stability of ink (retention ratio of physical properties); conditions: ink containing the dye, stored at 60° C. for 3 months; for Retention Ratio of Physical Properties After Storage (%) Surface Tension: surface tension at 25° C.; for Retention Ratio of Physical Properties After Storage (%) Viscosity: viscosity at 25° C.
Experimental: In 10 g of toluene was dissolved 0.6 g of each dye obtained in Preparation Examples 1 to 5 or Reference Example 6 or 7, and 1.4 g of the vinyl polymer solution obtained in the above item (1) was added to the resulting mixed solution, and the mixture was sufficiently stirred to dissolve the dye.
Next, 5.21 g of a 1 N aqueous potassium hydroxide and 50 g of purified water were added to the resulting solution, and the mixture was further sufficiently stirred. After stirring, the mixture was emulsified with an ultrasonic homogenizer at 400 μA for 20 minutes. Thereafter, toluene was removed with heating under reduced pressure, and the resulting mixture was filtered with a 0.8 μm filter, to give a coloring material-containing emulsion in which the dye was contained in the vinyl polymer.
(§1) There were mixed together 8 parts by weight of a coloring material-containing emulsion obtained in the above item (2) or a 30% aqueous solution of a dye obtained in any one of Reference Examples 1 to 5, 10 parts by weight of trimethylglycine, 5 parts by weight of urea, 1 part by weight of sodium 2-ethylhexylsulfosuccinate and 76 parts by weight of purified water, to give an ink.
A. Storage Stability of Ink
A 100 mL bottle made of a fluorocarbon resin was charged with an ink, and the bottle was stored in the air at 60° C. for 3 months. As the physical properties, particle sizes before and after storage (determined by a particle size distribution analyzer commercially available from OtsuKa Denshi K.K. under the trade name of ELS-8000), viscosity (determined at 25° C. by a viscometer commercially available from Toki Sangyo K.K. under the trade name of VISCOMETER ELS-80L) and surface tension (determined at 25° C. by a surface tension meter commercially available from Kyowa Kaimen Kagaku K.K. under the trade name of AUTOMATIC Surface Tensiometer CBVP-Z) were examined. The retention ratio in each physical property was obtained in accordance with the following equation: [formula]

[2] = Water resistance of printed matter (OD residual ratio); conditions: ink containing the dye; printed matter soaked in purified water at 25° C. for 10 minutes
Description: as §1
(§2) An inkjet printer cartridge (commercially available from CANON INC. under the trade name of BCI-21e) was charged with an ink, and the inkjet printer cartridge was loaded on a bubble jet printer (commercially available from CANON INC. under the model number of BJC430J). Printing was carried out on plain paper (commercially available from CANON INC. under the trade name of The Plain Paper for Inkjet Printing PB Paper) and on high-resolution coated paper (commercially available from CANON INC. under the trade name of (The High Resolution Coated Paper HR-101), and sufficiently dried. Thereafter, the following physical properties of the printed paper were evaluated. The results are shown in Table 2.
(2) Water Resistance
The printed matter on a paper sheet for plain paper copy was soaked in purified water at 25° C. for 10 minutes, and thereafter water was sufficiently removed to be air-dried. The optical density (hereinafter referred to as OD) of the same site before and after soaking was determined by using an optical density analyzer [commercially available from Macbeth Process Measurements Co., umder the trade name of reflection densitometer RD-914]. Its OD residual ratio was obtained in accordance with the following equation: [formula]

[3] = Light fastness of printed matter (OD residual ratio); conditions: ink containing the dye; printed matter irradiated at 10000 kJ/m^2, xenon fade meter
Description: as §1, §2
(3) Light Fastness
A printed matter of the PB Paper (commercially available from CANON INC.) was irradiated at 10000 kJ/m^2 with a xenon fade meter (commercially available from Suga Shikenki K.K. under the trade name of Low-temperature cycle-xenon-long life-fade meter). The optical density (OD) of the same site before and after irradiation was determined by using the same optical density analyzer as above. Its OD residual ratio was obtained in accordance with the following equation: [formula]

[4] = Ozone resistance of printed matter; conditions: ink containing the dye; printed matter exposed to 3 ppm ozone for 2 hours
Description: as §1, §2
(4) Ozone Resistance
A printed matter on a paper sheet for plain paper copy was exposed in a gas stream having an ozone concentration of 3 ppm for 2 hours, and the color tone (L*a*b*) before and after exposure was determined by using a colorinmeter [commercially available from Nippon Denshoku Kogyo Kabushiki Kaisha under the trade name of SE2000], and indicated by ΔE.

[5] = Water resistance, alkali resistance and acid resistance of dye on plain paper; set-up: key: ◯: Dye not being dissolved; x: Dye being dissolved
Experimental: A. Water Resistance, Alkali Resistance and Acid Resistance
In 10 ml of tetrahydrofuran was dissolved 0.1 g of a dye. A paper sheet for plain paper copy [commercially available from XEROX CO., LTD. under the trade name of XEROX 4024] was immersed in the solution for 10 minutes, and thereafter taken out therefrom to be air-dried at 25° C. for 24 hours. After drying, the paper was immersed in water (water resistance), a 1 N-aqueous sodium bydroxide (alkali resistance), or a 1 N-aqueous hydrochloric acid (acid resistance) for 10 minutes to examine whether or not the dye is dissolved in each solvent. The evaluation was made on the basis of the following evaluation criteria:
◯: Dye not being dissolved

[6] = Solvent solubility of dye; set-up: key: ◯: Dye not being dissolved; x: Dye being dissolved; conditions: 20° C.
Experimental: Twenty parts by weight of a dye was added to 100 parts by weight of a solvent shown in Table 1, and whether or not the dye is dissolved in the solvent at 20° C. was observed. The evaluation was made on the basis of the following evaluation criteria:
x: Dye not being dissolved

Compound | Retention Ratio of Physical Properties After Storage (%) Particle Size [1] [%] | Retention Ratio of Physical Properties After Storage (%) Surface Tension [1] [%] | Retention Ratio of Physical Properties After Storage (%) Viscosity [1] [%] | Water Resistance [OD Residual Ratio (%)] [2] [%] | Light Fastness [OD Residual Ratio (%)] [3] [%] | Ozone Resistance (ΔE) [4] | Acid Resistance ([5]; dyed plain paper immersed in 1 N aqueous hydrochloric acid for 10 minutes) | Alkali Resistance ([5]; dyed plain paper immersed in 1 N aqueous sodium hydroxide for 10 minutes) | Water Resistance ([5]; dyed plain paper immersed in water for 10 minutes) | Solvent Solubility 2-Butanone ([6]; 20 parts by weight dye in 100 parts by weight 2-butanone) | Solvent Solubility Ethanol ([6]; 20 parts by weight dye in 100 parts by weight ethanol) | Solvent Solubility Tetrahydrofuran ([6]; 20 parts by weight dye in 100 parts by weight tetrahydrofuran) | Solvent Solubility Toluene ([6]; 20 parts by weight dye in 100 parts by weight toluene)
CCCCN(CCCC)C(=O)C1=NN(c2ccc(S(=O)(=O)N(CCCC)CCCC)cc2)C(=O)C1N=Nc1ccc(S(=O)(=O)N(CCCC)CCCC)cc1 (centres unmarked) [Oil-Soluble Dye IB] | 98.4 | 97.3 | 95 | 100 | 98 | 0 |  |  |  |  |  |  | 
CCCCCCN(CCCCCC)S(=O)(=O)c1ccc(N=NC2C(=O)N(c3cc(Cl)c(S(=O)(=O)N(CCCCCC)CCCCCC)cc3Cl)N=C2C)cc1 (centres unmarked) [Oil-Soluble Dye IC] | 99.4 | 98.5 | 100 | 100 | 100 | 0 |  |  |  |  |  |  | 
CCCCN(CCCC)S(=O)(=O)c1cccc(N=Nc2ccc(NC(=O)Nc3ccc(N=Nc4cccc(S(=O)(=O)N(CCCC)CCCC)c4)cc3OC)c(OC)c2)c1 [Oil-Soluble Dye ID] | 101.3 | 97.0 | 96 | 100 | 94 | 0 |  |  |  |  |  |  | 
C.I. Acid Red 289 [Dye a] |  | 99.7 | 105 | 84 | 73 | 4 |  |  |  |  |  |  | 
C.I. Acid Yellow 17 [Dye c] |  | 98.6 | 105 | 42 | 93 | 3 |  |  |  |  |  |  | 
C.I. Acid Yellow 23 [Dye b] |  | 96.6 | 96 | 40 | 87 | 5 |  |  |  |  |  |  | 
C.I. Direct Yellow 86 [Dye d] |  | 93.9 | 92 | 56 | 86 | 10 |  |  |  |  |  |  | 
C.I. Direct Yellow 132 [Dye e] |  | 101.2 | 105 | 35 | 82 | 0 |  |  |  |  |  |  | 
C.I. Solvent Red 49 [Dye l] | 93 | 97.9 | 91 | 100 | 45 | 8 | ◯ | ◯ | ◯ | ◯ | ◯ | ◯ | ◯
